Measured values reported in paper PMC5377235, “A new target region for changing the substrate specificity of amine transaminases” (Scientific Reports, 2015).

Key:
[1] = target: T1, ATA-117-Rd11 (Arthrobacter sp. KNK168, UniProt F7J696, S8P/Y60F/L61Y/H62T/V65A/V69T/D81G/M94I/I96L/F122M/S124T/S126T/G136F/Y150S/V152C/A169L/V199I/A209L/G215C/G217N/S223P/L269P/L273Y/T282S/A284G/P297S/S321P); assay: X-ray crystal structure, […] Å; type: binding; conditions: covalent; internal aldimine
T1 construct: gene TAS; synthetic gene, pET28a N-His tag, thrombin cleaved; E. coli; homodimer

[2] = target: T2, Ab-R-ATA (Arthrobacter sp. KNK168, UniProt F7J696); assay: HPLC of acetophenone formed, initial kinetics; type: biochemical; conditions: 10 mM (R)-1-phenylethylamine as amino donor, 0.5 mM PLP, 100 mM Tris-HCl pH 8.5, 30 °C
T2 construct: gene TAS; full length, 330 amino acids, no tag, pUCNT vector, E. coli Rosetta (DE3); homodimer, active site formed with loop 129-145 of the other protomer
Excerpt: (§1) HPLC of acetophenone formed, initial kinetics on Ab-R-ATA | The kcat/Km values for pyruvate of the R138A and the R138Q mutants

[3] = target: T3, Ab-R-ATA (Arthrobacter sp. KNK168, UniProt F7J696, R138Q, form not given); assay: HPLC of acetophenone formed, initial kinetics; type: biochemical; conditions: 10 mM (R)-1-phenylethylamine as amino donor, 0.5 mM PLP, 100 mM Tris-HCl pH 8.5, 30 °C
T3 construct: gene TAS; full length, 330 amino acids, no tag, pUCNT vector, E. coli Rosetta (DE3); homodimer, active site formed with loop 129-145 of the other protomer
Excerpt: as §1

Structure (SMILES) | X-ray crystal structure, 2.20 Å [1] | Km [2] | Km [3]
Cc1ncc(COP(=O)(O)O)c(C=O)c1O [PLP] | The cofactor PLP in the active site is shown as green sticks | – | –
CC(=O)C(=O)O [pyruvate] | – | 5.8 ± 0.1 mM | 66 ± 3 mM
